Experiments:
[1] = tested on: BRCA1-mutated MDA-MB-436 cells; assay: Proliferation inhibitory test of BRCA1-mutated MDA-MB-436 cells (CCK-8); format: cell-based; details: Homo sapiens, 120 h, 5 days, read-out: IC50 (nM), inhibitory activity against BRCA1-mutated MDA-MB-436 cells
Protocol: (§1) CCK-8 was used to measure the content of mitochondrial dehydrogenase in cells at different drug concentrations, and the luminescence intensity was used to reflect the cell activity. The IC50 values of different compounds on BRCA1-mutated MDA-MB-436 cells were calculated using the survival rate, and the proliferation inhibitory effect of the compounds of the present disclosure on BRCA1-mutated MDA-MB-436 cells was studied to evaluate the anti-tumor efficacy of the test compounds at the cellular level.
(§2) On Day −1, the cells were inoculated into the 96-well cell culture plate at a fixed cell density and then placed in the 5% CO2 cell incubator for culture overnight at 37° C.
(§3) On Day 0, the compound to be tested was prepared into a 10 mM stock solution and diluted into 9 concentration points at the concentration of 1,000 nM, 300 nM, 100 nM, 30 nM, 10 nM, 3 nM, 1 nM, 0.3 nM and 0.1 nM in two duplicated wells. A fixed volume of the diluted compound was added to the 96-well cell culture plate and then placed in the 5% CO2 cell incubator for culture at 37° C. for 5 days.
(§4) On Day 5, a fixed volume of CCK-8 was added to the 96-well cell culture plate and incubated in the 5% CO2 cell incubator at 37° C. for 1.5 h, and the plate was read by a chemiluminescence module of the multifunctional microplate reader.
(§5) With the logarithmic value of the concentration as an X axis and the survival percentage as a Y axis, a dose-effect curve was fitted by using a log(inhibitor) vs. response-Variable slop (Four parameters) formula of the analysis software Graphpad Prism 9, thereby obtaining the IC50 value of the anti-proliferation inhibitory activity of each compound against BRCA1-mutated MDA-MB-436 cells.

[2] = tested on: BRCA1-mutated HCC1395 cells; assay: Proliferation inhibitory test of BRCA1-mutated HCC1395 cells (CCK-8); format: cell-based; details: Homo sapiens, 120 h, 5 days, read-out: IC50 (nM), inhibitory activity against BRCA1-mutated HCC1395 cells
Protocol: as §1, with “HCC1395” for “MDA-MB-436”
as §2, §3, §4
as §5, with “HCC1395” for “MDA-MB-436”

[3] = Study on pharmacokinetics of rats (oral gavage, plasma LC-MS/MS); format: in vivo; details: female SD rats, po. 10 mg/kg
Protocol: With SD rats as test animals, the plasma concentration in the plasma of rats at different time points after oral administration of the compounds of the present application was determined by an LC-MS/MS method. Pharmacokinetic parameters of the compounds of the present application in rats were obtained to study pharmacokinetic characteristics.
SD rats, female, body weight 180-220 g, 3 rats per group. After being purchased, the animals were fed in an animal house for an adaptation period of at least 3 days and then used for testing after passing quarantine.
3.1. Grouping: The SD rats were randomly grouped according to Table 4, which had no statistical difference in the body weight between groups after grouping.
3.2. Vehicle: 10% DMSO and 90% (20% SBE-β-CD in saline).
According to Table 4, each compound was prepared into a clear solution with the vehicle, respectively, and each group was administered by gavage with the corresponding test drug. Before administration, and at 15 min, 30 min, 1 h, 2 h, 4 h, 6 h, 8 h and 24 h after the administration, a fixed volume of blood was collected through sinuses jugularis, placed in an EDTA-K2 anticoagulant tube, and centrifuged at 4,000 rpm for 10 min to separate the plasma in a centrifuge tube. The plasma was frozen in a refrigerator at −80° C.
The plasma stored at −80° C. at each time point was taken out, and a fixed volume of acetonitrile was added thereto. After being vortexed at 1,500 rpm for 2 min, it was centrifuged for 15 min (3,500 r/min). A fixed volume of solution supernatant was taken for LC-MS/MS analysis.
The pharmacokinetic behaviors of the test compounds were fitted with a non-compartmental model, and the main pharmacokinetic parameters were calculated using DAS3.31 software.

IC50 [1]: 2.06 nM
IC50 [2]: 2.45 nM
Cl_F_obs [3]: 2.17 mL/min/kg
AUC(0-t) ([3]; rat): 72600 ng·h/mL
Cmax ([3]; rat): 11300 ng/mL
half-life ([3]; rat): 6.07 h
Compound: CNC(=O)c1ccc(N2CCN(Cc3cc(F)c4nc(C)c(=O)[nH]c4c3)CC2)c(C)n1 [Compound 6, 5-(4-((8-fluoro-2-methyl-3-oxo-3,4-dihydroquinoxalin-6-yl)methyl)piperazin-1-yl)-N,6-dimethylpicolinamide]
